Experimental data taken from patent US20260028326A1, “COMPOUND BASED ON ISOINDOLINE-SUBSTITUTED GLUTARIMIDE BACKBONE AND USE THEREOF” (GLUETACS THERAPEUTICS (SHANGHAI) CO., LTD., priority 2022, published 2026).

How the values were obtained:
IKZF1 protein = IKZF1 protein (Homo sapiens (Human), UniProt Q13422+Q96SW2); assay: Western-blot assay of substrate protein degradation in hPBMC, IKZF1; type: cell-based; conditions: for residual substrate protein level, IKZF1: hPBMC cells, compound 500 nM, 24 hours, Western blot
GSPT1 protein = GSPT1 protein (Homo sapiens (Human), UniProt P15170+Q96SW2); assay: Western-blot assay of substrate protein degradation in hPBMC, GSPT1; type: cell-based; conditions: for residual substrate protein level, GSPT1: hPBMC cells, compound 500 nM, 24 hours, Western blot
IKZF3 protein = IKZF3 protein (Homo sapiens (Human), UniProt Q96SW2+Q9UKT9); assay: Western-blot assay of substrate protein degradation in hPBMC, IKZF3; type: cell-based; conditions: for residual substrate protein level, IKZF3: hPBMC cells, compound 500 nM, 24 hours, Western blot
[1] = target: human Cereblon WT GST-tagged protein (Homo sapiens (Human), UniProt Q96SW2); assay: CRBN-binding affinity, HTRF (CEREBLON BINDING kit)
How it was run: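 HTRF competition readout: compounds compete with a thalidomide-Re conjugate for GST-tagged wild-type human CRBN detected via Eu-labelled anti-GST antibody. Inhibition rate derived relative to protein-free blank wells.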

MM.1S cells = assay: Tumor cell proliferation IC50 (CCK-8), MM.1S; conditions: Homo sapiens, MM1.S, 72 h, read-out: IC50 for inhibiting the proliferation of tumor cells, MM.1S;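 further: viability of cultured cells read by CCK-8 reagent after compound exposure, growth inhibition curves fitted to derive IC50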
Mino cells = assay: Tumor cell proliferation IC50 (CCK-8), Mino; conditions: Homo sapiens, 72 h, read-out: IC50 for inhibiting the proliferation of tumor cells, Mino;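 further: cell viability assessed with CCK-8 reagent after compound exposure, IC50 derived from plotted growth inhibition curves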
[2] = hPBMC, 24 h, serially diluted 0.03-1000 nM

IKZF3 protein, sequence (Q9UKT9 whole entry): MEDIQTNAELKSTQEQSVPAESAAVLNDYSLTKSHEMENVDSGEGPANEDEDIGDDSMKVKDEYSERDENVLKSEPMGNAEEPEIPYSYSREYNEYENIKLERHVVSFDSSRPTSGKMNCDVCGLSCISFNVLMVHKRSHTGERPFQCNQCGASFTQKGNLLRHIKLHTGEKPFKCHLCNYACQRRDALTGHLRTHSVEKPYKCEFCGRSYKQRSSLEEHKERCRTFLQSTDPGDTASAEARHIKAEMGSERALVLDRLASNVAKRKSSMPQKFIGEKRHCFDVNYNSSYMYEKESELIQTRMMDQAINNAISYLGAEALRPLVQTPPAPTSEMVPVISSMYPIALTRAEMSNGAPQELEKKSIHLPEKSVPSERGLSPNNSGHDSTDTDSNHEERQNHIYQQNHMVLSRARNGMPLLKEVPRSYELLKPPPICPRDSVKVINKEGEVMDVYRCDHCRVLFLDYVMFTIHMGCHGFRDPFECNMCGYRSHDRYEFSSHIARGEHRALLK
IKZF3 protein, sequence (Q96SW2 whole entry): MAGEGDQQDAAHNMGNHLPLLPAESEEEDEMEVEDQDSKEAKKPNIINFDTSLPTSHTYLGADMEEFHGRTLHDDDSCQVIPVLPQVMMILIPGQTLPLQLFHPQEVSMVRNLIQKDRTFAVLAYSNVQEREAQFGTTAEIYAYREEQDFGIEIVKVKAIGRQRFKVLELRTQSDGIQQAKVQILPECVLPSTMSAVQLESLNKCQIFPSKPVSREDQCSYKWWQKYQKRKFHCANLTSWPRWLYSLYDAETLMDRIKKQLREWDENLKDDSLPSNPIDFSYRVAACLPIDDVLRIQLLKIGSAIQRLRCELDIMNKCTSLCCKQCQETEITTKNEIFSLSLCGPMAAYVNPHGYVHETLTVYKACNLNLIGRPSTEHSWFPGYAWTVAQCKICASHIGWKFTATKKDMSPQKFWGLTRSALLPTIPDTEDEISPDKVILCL
IKZF3 protein, sequence (Q16531 whole entry partner): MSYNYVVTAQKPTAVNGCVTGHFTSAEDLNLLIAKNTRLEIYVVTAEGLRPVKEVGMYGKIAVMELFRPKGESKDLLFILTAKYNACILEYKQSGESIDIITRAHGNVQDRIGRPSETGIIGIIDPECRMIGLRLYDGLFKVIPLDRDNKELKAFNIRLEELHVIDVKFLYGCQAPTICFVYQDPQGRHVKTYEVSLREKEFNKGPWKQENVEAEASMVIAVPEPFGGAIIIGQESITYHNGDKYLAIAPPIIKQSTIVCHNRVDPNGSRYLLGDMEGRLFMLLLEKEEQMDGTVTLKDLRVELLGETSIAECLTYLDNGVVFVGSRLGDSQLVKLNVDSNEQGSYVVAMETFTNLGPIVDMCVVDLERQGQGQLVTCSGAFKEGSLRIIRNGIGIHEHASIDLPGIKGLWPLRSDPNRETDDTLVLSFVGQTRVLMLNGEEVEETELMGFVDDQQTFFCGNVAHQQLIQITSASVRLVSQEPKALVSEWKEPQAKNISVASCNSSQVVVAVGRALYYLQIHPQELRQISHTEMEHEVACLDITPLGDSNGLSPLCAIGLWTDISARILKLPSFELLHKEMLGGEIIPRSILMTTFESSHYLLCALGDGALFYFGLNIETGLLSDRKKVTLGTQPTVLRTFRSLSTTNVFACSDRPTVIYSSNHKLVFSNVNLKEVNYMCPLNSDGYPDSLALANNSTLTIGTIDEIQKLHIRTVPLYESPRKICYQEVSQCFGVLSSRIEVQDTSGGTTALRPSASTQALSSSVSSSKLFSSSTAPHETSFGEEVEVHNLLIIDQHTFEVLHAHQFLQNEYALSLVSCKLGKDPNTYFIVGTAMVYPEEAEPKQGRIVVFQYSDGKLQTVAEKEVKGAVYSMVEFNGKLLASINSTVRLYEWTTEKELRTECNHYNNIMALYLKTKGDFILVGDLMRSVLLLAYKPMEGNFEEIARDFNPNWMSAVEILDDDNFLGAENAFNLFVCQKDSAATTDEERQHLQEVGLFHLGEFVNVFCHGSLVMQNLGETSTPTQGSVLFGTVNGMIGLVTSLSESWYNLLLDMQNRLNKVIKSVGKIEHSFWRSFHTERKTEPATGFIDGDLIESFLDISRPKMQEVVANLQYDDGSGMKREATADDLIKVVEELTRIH
IKZF1 protein, sequence (Q13422 whole entry): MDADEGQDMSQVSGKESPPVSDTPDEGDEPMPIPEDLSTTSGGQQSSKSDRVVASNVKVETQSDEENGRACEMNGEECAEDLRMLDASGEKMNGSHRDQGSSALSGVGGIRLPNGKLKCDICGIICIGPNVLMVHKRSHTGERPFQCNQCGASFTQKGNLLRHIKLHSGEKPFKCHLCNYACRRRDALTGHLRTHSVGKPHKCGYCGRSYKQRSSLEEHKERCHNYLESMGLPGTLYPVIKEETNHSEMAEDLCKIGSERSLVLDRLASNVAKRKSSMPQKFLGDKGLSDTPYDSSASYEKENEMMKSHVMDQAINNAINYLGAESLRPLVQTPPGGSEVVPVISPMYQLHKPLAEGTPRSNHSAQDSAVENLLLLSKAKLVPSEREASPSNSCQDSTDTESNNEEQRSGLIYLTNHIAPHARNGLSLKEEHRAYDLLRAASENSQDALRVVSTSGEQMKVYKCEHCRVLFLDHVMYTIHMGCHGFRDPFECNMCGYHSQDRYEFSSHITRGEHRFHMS
IKZF1 protein, sequence (Q96SW2 whole entry): as the sequence (Q96SW2 whole entry) above
IKZF1 protein, sequence (Q16531 whole entry partner): as the sequence (Q16531 whole entry partner) above
human Cereblon WT GST-tagged protein, sequence (Q96SW2 whole entry): as the sequence (Q96SW2 whole entry) above
GSPT1 protein, sequence (P15170 whole entry): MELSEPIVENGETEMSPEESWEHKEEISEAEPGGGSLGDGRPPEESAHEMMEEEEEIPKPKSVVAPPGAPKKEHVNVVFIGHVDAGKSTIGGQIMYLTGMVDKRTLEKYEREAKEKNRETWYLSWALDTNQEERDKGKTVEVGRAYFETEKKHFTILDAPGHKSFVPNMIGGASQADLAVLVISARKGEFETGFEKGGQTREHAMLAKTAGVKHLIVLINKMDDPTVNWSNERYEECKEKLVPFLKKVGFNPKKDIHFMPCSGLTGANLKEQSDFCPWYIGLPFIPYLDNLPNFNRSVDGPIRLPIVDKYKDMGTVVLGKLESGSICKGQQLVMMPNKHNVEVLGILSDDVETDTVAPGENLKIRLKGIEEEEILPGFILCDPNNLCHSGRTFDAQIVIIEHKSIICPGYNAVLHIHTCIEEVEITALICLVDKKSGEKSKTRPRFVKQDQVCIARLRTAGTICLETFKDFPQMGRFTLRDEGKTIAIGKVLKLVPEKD
GSPT1 protein, sequence (Q96SW2 whole entry): as the sequence (Q96SW2 whole entry) above
GSPT1 protein, sequence (Q16531 whole entry partner): as the sequence (Q16531 whole entry partner) above

| Compound | IC50 [1] [nM] | IC50 (MM.1S cells) [nM] | IC50 (Mino cells) [nM] | concentration at which significant degradation effects on IKZF1 protein are exhibited (FIG. 1) (IKZF1 protein; [2]) [nM] | concentration at which significant degradation effects on GSPT1 protein are exhibited (FIG. 1) (GSPT1 protein; [2]) [nM] | concentration at which significant degradation effects on IKZF3 protein are exhibited (FIG. 1) (IKZF3 protein; [2]) [nM] | residual substrate protein level, IKZF1 (IKZF1 protein) | residual substrate protein level, GSPT1 (GSPT1 protein) | residual substrate protein level, IKZF3 (IKZF3 protein) |
| --- | --- | --- | --- | --- | --- | --- | --- | --- | --- |
| CC1(C)CCC(C(=O)N2CCC3(CC2)CN(Cc2ccc4c(c2)CN(C2CCC(=O)NC2=O)C4=O)C3)=C(c2ccc(Cl)cc2)C1 (centres unmarked) [GT-05656, 3-(5-((7-(4′-chloro-5,5-dimethyl-3,4,5,6-tetrahydro-[1,1′-biphenyl]-2-carbonyl)-2,7-diazaspiro[3.5]nonan-2-yl)methyl)-1-oxoisoindolin-2-yl)piperidine-2,6-dione] | 700 | 100 to 500 |  |  |  |  | B (B represents a residual substrate protein level of >50%) | B (B represents a residual substrate protein level of >50%) | A (A represents a residual substrate protein level of <50%) |
| CC1(C)CCC(CN2C3CC2CN(Cc2ccc4c(c2F)CN(C2CCC(=O)NC2=O)C4=O)C3)=C(c2ccc(Cl)cc2)C1 (centres unmarked) [GT-05529, 3-(5-((6-((4′-chloro-5,5-dimethyl-3,4,5,6-tetrahydro-[1,1′-biphenyl]-2-yl)methyl)-3,6-diazabicyclo[3.1.1]heptan-3-yl)methyl)-4-fluoro-1-oxoisoindolin-2-yl)piperidine-2,6-dione] | 350 | 100 to 500 | 500 to 1000 |  |  |  | A (A represents a residual substrate protein level of <50%) | B (B represents a residual substrate protein level of >50%) | A (A represents a residual substrate protein level of <50%) |
| CC1(C)CCC(CN2CCC3(CC2)CN(Cc2ccc4c(c2)CN(C2CCC(=O)NC2=O)C4=O)C3)=C(c2ccc(Cl)cc2)C1 (centres unmarked) [GT-05677, 3-(5-((7-((4′-chloro-5,5-dimethyl-3,4,5,6-tetrahydro-[1,1′-biphenyl]-2-yl)methyl)-2,7-diazaspiro[3.5]nonan-2-yl)methyl)-1-oxoisoindolin-2-yl)piperidine-2,6-dione] | 1230 | 50 to 100 |  |  |  |  | A (A represents a residual substrate protein level of <50%) | B (B represents a residual substrate protein level of >50%) | A (A represents a residual substrate protein level of <50%) |
| CC1(C)CCC(CN2CC3CC(C2)N3Cc2cc(F)c3c(c2)CN(C2CCC(=O)NC2=O)C3=O)=C(c2ccc(Cl)cc2)C1 (centres unmarked) [GT-05383, 3-(5-((3-((4′-chloro-5,5-dimethyl-3,4,5,6-tetrahydro-[1,1′-biphenyl]-2-yl)methyl)-3,6-diazabicyclo[3.1.1]heptan-6-yl)methyl)-7-fluoro-1-oxoisoindolin-2-yl)piperidine-2,6-dione] | 540 | 500 to 1000 |  |  |  |  | B (B represents a residual substrate protein level of >50%) | A (A represents a residual substrate protein level of <50%) | B (B represents a residual substrate protein level of >50%) |
| O=C1CCC(N2Cc3cc(CN4C5CCC4CN(C(=O)c4ccccc4-c4ccc(Cl)cc4)C5)ccc3C2=O)C(=O)N1 (centres unmarked) [GT-05788, 3-(5-((3-(4′-chloro-[1,1′-biphenyl]-2-carbonyl)-3,8-diazabicyclo[3.2.1]octan-8-yl)methyl)-1-oxoisoindolin-2-yl)piperidine-2,6-dione] | 500 | 50 to 100 | 100 to 500 |  |  |  |  |  |  |
| CC1(C)CCC(CN2CCCN(Cc3ccc4c(c3)CN(C3CCC(=O)NC3=O)C4=O)CC2)=C(c2ccc(Cl)cc2)C1 (centres unmarked) [GT-05396, 3-(5-((4-((4′-chloro-5,5-dimethyl-3,4,5,6-tetrahydro-[1,1′-biphenyl]-2-yl)methyl)-1,4-diazepan-1-yl)methyl)-1-oxoisoindolin-2-yl)piperidine-2,6-dione] | 590 | 100 to 500 |  |  |  |  | B (B represents a residual substrate protein level of >50%) | A (A represents a residual substrate protein level of <50%) | A (A represents a residual substrate protein level of <50%) |

Now from value to compound, other results behind:

| IC50 [1] [nM] | IC50 (MM.1S cells) [nM] | IC50 (Mino cells) [nM] | concentration at which significant degradation effects on IKZF1 protein are exhibited (FIG. 1) (IKZF1 protein; [2]) [nM] | concentration at which significant degradation effects on GSPT1 protein are exhibited (FIG. 1) (GSPT1 protein; [2]) [nM] | concentration at which significant degradation effects on IKZF3 protein are exhibited (FIG. 1) (IKZF3 protein; [2]) [nM] | Compound | residual substrate protein level, IKZF1 (IKZF1 protein) | residual substrate protein level, GSPT1 (GSPT1 protein) | residual substrate protein level, IKZF3 (IKZF3 protein) |
| --- | --- | --- | --- | --- | --- | --- | --- | --- | --- |
| 390 | 100 to 500 | 10 to 50 | < 3 | < 3 | < 3 | O=C1CCC(N2Cc3cc(CN4CCN(Cc5ccc(-c6cccs6)cc5)CC4)ccc3C2=O)C(=O)N1 (centres unmarked) [GT-05640, 3-(1-oxo-5-((4-(4-(thiophen-2-yl)benzyl)piperazin-1-yl)methyl)isoindolin-2-yl)piperidine-2,6-dione] | A (A represents a residual substrate protein level of <50%) | B (B represents a residual substrate protein level of >50%) | A (A represents a residual substrate protein level of <50%) |
| 230 | 100 to 500 | 100 to 500 |  |  |  | O=C1CCC(N2Cc3cc(CN4CCN(C(=O)c5ccccc5-c5ccc(Cl)cc5)CC4)ccc3C2=O)C(=O)N1 (centres unmarked) [GT-03891, 3-(5-((4-(4′-chloro-[1,1′-biphenyl]-2-carbonyl)piperazin-1-yl)methyl)-1-oxoisoindolin-2-yl)piperidine-2,6-dione] |  |  |  |
| 840 | 100 to 500 | 5 to 10 |  |  |  | O=C1CCC(N2Cc3cc(CN4CCN(Cc5cnc(-c6ccccc6)cn5)CC4)ccc3C2=O)C(=O)N1 (centres unmarked) [GT-05544, 3-(1-oxo-5-((4-((5-phenylpyrazin-2-yl)methyl)piperazin-1-yl)methyl)isoindolin-2-yl)piperidine-2,6-dione] | A (A represents a residual substrate protein level of <50%) | B (B represents a residual substrate protein level of >50%) | A (A represents a residual substrate protein level of <50%) |
| 680 | 100 to 500 | 100 to 500 |  |  |  | O=C1CCC(N2Cc3c(ccc(CN4CCN(C(=O)c5ccccc5-c5ccc(Cl)cc5)CC4)c3F)C2=O)C(=O)N1 (centres unmarked) [GT-05649, 3-(5-((4-(4′-chloro-[1,1′-biphenyl]-2-carbonyl)piperazin-1-yl)methyl)-4-fluoro-1-oxoisoindolin-2-yl)piperidine-2,6-dione] | B (B represents a residual substrate protein level of >50%) | B (B represents a residual substrate protein level of >50%) | A (A represents a residual substrate protein level of <50%) |
| 1670 | 500 to 1000 | 100 to 500 |  |  |  | O=C1CCC(N2C(=O)c3ccc(CN4CCN(Cc5ccc(-c6ccc(Cl)cc6)cc5)CC4)cc3C2=O)C(=O)N1 (centres unmarked) [GT-05599, 5-((4-((4′-chloro-[1,1′-biphenyl]-4-yl)methyl)piperazin-1-yl)methyl)-2-(2,6-dioxopiperidin-3-yl)isoindoline-1,3-dione] | A (A represents a residual substrate protein level of <50%) | B (B represents a residual substrate protein level of >50%) | A (A represents a residual substrate protein level of <50%) |
